Measurements: patent US20030119728A1, “Stable, nasally, orally or sublingually applicable pharmaceutical preparation” (priority 2000, published 2003)

Assay: Preliminary study of desmopressin preparations with various pH values, 6 weeks at 50° C. in glass flasks
Type: physicochemical
Conditions: pH 1.0-7.0 tested, desmopressin content and sum of G1-G4
Protocol: Desmopressin preparations with various pH values (1.0, 2.0, 3.0, 4.0, 5.0, 6.0, and 7.0) were investigated for these preliminary studies. These solutions were stored in glass flasks for 6 weeks at 50° C. and then analysed in the usual way with the use of analytical columns. After 6 weeks the pH values of the seven solutions were unchanged.

pH region in which desmopressin is most stable: ~5.0
SMILES: NC(=O)CC[C@@H]1NC(=O)[C@H](Cc2ccccc2)NC(=O)[C@H](Cc2ccc(O)cc2)NC(=O)CCSSC[C@@H](C(=O)N2CCC[C@H]2C(=O)N[C@H](CCCN=C(N)N)C(=O)NCC(N)=O)NC(=O)[C@H](CC(N)=O)NC1=O [desmopressin, 1-deamino-8-D-arginine-vasopressin]
